The test system of this experiment is Radical scavenging activity. The experiment can be described thus: Antioxidant activity assessed as DPPH free radical scavenging activity. The experiment is classed as functional. (In general: DPPH is a stable violet radical that fades when it is reduced.)

Turning to `O=c1c(O)c(-c2ccc(O)c(O)c2)oc2c(O[C@@H]3O[C@H](CO)[C@@H](O)[C@H](O)[C@H]3O)c(O)cc(O)c12`, the EC50 was found to be 25.5 µg.

For the molecule `O=C1c2c(O)cc(O)cc2O[C@H](c2ccc(O)c(O)c2)[C@H]1O` [(+)-TAXIFOLIN], the EC50 came out at 24 µg.

For the molecule `COc1cc(C2Oc3cc(O)cc(O)c3C(=O)C2O)ccc1O` (centres undefined) [DIHYDROISORHAMNETIN], the EC50 was more than 100 µg.

As to `COc1ccc(C2Oc3cc(O)cc(O)c3C(=O)C2O)cc1` (centres undefined) [DIHYDROKAEMPFERIDE], the EC50 is more than 100 µg.

With `O=C1c2c(O)cc(O)cc2O[C@H](c2ccc(O)cc2)[C@H]1O` [DIHYDROKAEMPFEROL], the EC50 was more than 100 µg.

For `O=c1oc2c(O)c(O)cc3c(=O)oc4c(O)c(O)cc1c4c23` [ELLAGIC ACID], the EC50 turned out to be 4.8 µg.

With `O=C(O)c1cc(O)c(O)c(O)c1` [GALLIC ACID], the EC50 came out at 3.8 µg.

For `O=c1c(O)c(-c2ccc(O)c(O)c2)oc2c(O)c(O)cc(O)c12` [GOSSYPETIN], the EC50 is 5.5 µg.

For the molecule `O=C(O)[C@H]1O[C@@H](Oc2c(O)cc(O)c3c(=O)c(O)c(-c4ccc(O)c(O)c4)oc23)[C@H](O)[C@@H](O)[C@@H]1O` [HIBIFOLIN], the EC50 is 16 µg.

Turning to `COc1cc(-c2oc3cc(O)cc(O)c3c(=O)c2O)ccc1O` [ISORHAMNETIN], the EC50 turned out to be 26.2 µg.

Regarding `COc1ccc(-c2oc3cc(O)cc(O)c3c(=O)c2O)cc1` [KAEMPFERIDE], the EC50 came out at 97 µg.

As for `O=c1c(O)c(-c2ccc(O)cc2)oc2cc(O)cc(O)c12` [KAEMPFEROL], the EC50 came out at 14.6 µg.

For the molecule `COc1c(O)cc2oc(-c3ccc(O)c(O)c3)c(O)c(=O)c2c1O` [PATULETIN], the EC50 was found to be 10.6 µg.

Consider `O=c1c(O)c(-c2ccc(O)c(O)c2)oc2cc(O)c(O)c(O)c12` [QUERCETAGETIN], for which the EC50 is 10.5 µg.

`O=c1c(O)c(-c2ccc(O)c(O)c2)oc2cc(O)cc(O)c12` [QUERCETIN]: the EC50 was determined as 14.4 µg.

For the molecule `C[C@@H]1O[C@@H](OC[C@H]2O[C@@H](Oc3c(-c4ccc(O)c(O)c4)oc4cc(O)cc(O)c4c3=O)[C@H](O)[C@@H](O)[C@@H]2O)[C@H](O)[C@H](O)[C@H]1O` [RUTIN], the EC50 came out at 15.5 µg.

Regarding `COc1ccc(C2Oc3cc(O)cc(O)c3C(=O)C2O)cc1O` (centres undefined) [TAMARAXETIN], the EC50 is more than 100 µg.

In the case of `COc1ccc(-c2oc3cc(O)cc(O)c3c(=O)c2O)cc1O` [TAMARIXETIN], the EC50 is more than 100 µg.

Take `Cc1c(C)c2c(c(C)c1O)CCC(C)(C(=O)O)O2` (centres undefined) [TROLOX]: the EC50 turned out to be 12.5 µg.

Source of the values: ChEMBL document CHEMBL1821647, “Synthesis and antioxygenic activities of seabuckthorn flavone-3-ols and analogs” (Bioorg Med Chem Lett, 2011).
